Assay results from ChEMBL document CHEMBL5038615, “Discovery of a cinnamyl piperidine derivative as new neddylation inhibitor for gastric cancer treatment” (Eur J Med Chem, 2021).

Legend:
A549 = test: Antiproliferative activity against human A549 cells assessed as inhibition of cell proliferation measured after 72 hrs by MTT assay; type: functional, cell-based; settings: A549, 72 h
HepG2 = test: Antiproliferative activity against human HepG2 cells assessed as inhibition of cell proliferation measured after 72 hrs by MTT assay; type: functional, cell-based; settings: HepG2, 72 h
MCF7 = test: Antiproliferative activity against human MCF7 cells assessed as inhibition of cell proliferation measured after 72 hrs by MTT assay; type: functional, cell-based; settings: MCF7, 72 h
MGC-803 = test: Antiproliferative activity against human MGC-803 cells assessed as inhibition of cell proliferation measured after 72 hrs by MTT assay; type: functional, cell-based; settings: MGC-803, 72 h
[1] = Cytotoxicity against human GES1 cells assessed as inhibition of cell proliferation measured after 72 hrs by MTT assay; type: toxicity, cell-based
HGC-27 = test: Antiproliferative activity against human HGC-27 cells assessed as inhibition of cell proliferation measured after 72 hrs by MTT assay; type: functional, cell-based; settings: HGC-27, 72 h

Structure (SMILES)	IC50 (A549)	IC50 (HepG2)	IC50 (MCF7)	IC50 (MGC-803)	IC50 at 72 h [1]	IC50 (HGC-27)
CCCc1ccc(NC(=O)C2CCN(C/C=C/c3ccccc3)CC2)cc1	9.47 µM	9.41 µM	9.03 µM	5.21 µM	–	–
O=C(Nc1ccccc1)C1CCN(C/C=C/c2ccccc2)CC1	69.7 µM	90.9 µM	60.2 µM	57.9 µM	–	–
O=C(Nc1cccc2cccnc12)C1CCN(C/C=C/c2ccccc2)CC1	51.6 µM	29.5 µM	34.8 µM	38.1 µM	–	–
N#Cc1ccc(NC(=O)C2CCN(C/C=C/c3ccccc3)CC2)cc1	40.2 µM	38.3 µM	44.5 µM	28.2 µM	–	–
CCc1ccc(NC(=O)C2CCN(C/C=C/c3ccccc3)CC2)cc1	19.6 µM	23.3 µM	20 µM	11.6 µM	–	–
COc1cccc(NC(=O)C2CCN(C/C=C/c3ccccc3)CC2)c1	50.5 µM	78.6 µM	42.6 µM	37.2 µM	–	–
O=C(NCc1ccccc1)C1CCN(C/C=C/c2ccccc2)CC1	> 100 µM	> 100 µM	> 100 µM	> 100 µM	–	–
O=C(Nc1cccc(F)c1)C1CCN(C/C=C/c2ccccc2)CC1	43.3 µM	51.1 µM	33 µM	23.3 µM	–	–
O=C(Nc1nccs1)C1CCN(C/C=C/c2ccccc2)CC1	34.9 µM	22.4 µM	28.6 µM	16.4 µM	–	–
Cc1ccc(NC(=O)C2CCN(C/C=C/c3ccccc3)CC2)cc1	29.6 µM	33.9 µM	30 µM	24.1 µM	–	–
CN1CCN(c2ccc(NC(=O)C3CCN(C/C=C/c4ccccc4)CC3)cc2)CC1	19.9 µM	35.2 µM	44 µM	14 µM	–	–
O=c1[nH]cc(F)c(=O)[nH]1 [FLUOROURACIL]	15.1 µM	6.69 µM	9.49 µM	12.1 µM	–	–
O=C(Nc1ccccn1)C1CCN(C/C=C/c2ccccc2)CC1	89.3 µM	51.1 µM	67.2 µM	45.2 µM	–	–
O=C(Nc1cccc(Br)c1)C1CCN(C/C=C/c2ccccc2)CC1	16.4 µM	19.2 µM	11.5 µM	9.11 µM	–	–
CCCCc1ccc(NC(=O)C2CCN(C/C=C/c3ccccc3)CC2)cc1	5.91 µM	4.32 µM	5.87 µM	2.57 µM	–	–
COc1ccccc1NC(=O)C1CCN(C/C=C/c2ccccc2)CC1	> 100 µM	91.2 µM	> 100 µM	71.2 µM	–	–
O=C(Nc1cc(-c2cccc(Br)c2)on1)C1CCN(C/C=C/c2ccccc2)CC1	6.53 µM	4.42 µM	4.87 µM	4.61 µM	–	–
O=C(Nc1cccc(C(F)(F)F)c1)C1CCN(C/C=C/c2ccccc2)CC1	15.6 µM	11.4 µM	16.1 µM	9.59 µM	–	–
O=C(Nc1ccc(F)c(Br)c1)C1CCN(C/C=C/c2ccccc2)CC1	11.7 µM	8.19 µM	13.5 µM	9.27 µM	–	–
O=C(Nc1nc2ccc(Br)cc2s1)C1CCN(C/C=C/c2ccccc2)CC1	17.7 µM	32.1 µM	14.6 µM	4.38 µM	–	–
CC(C)c1ccc(NC(=O)C2CCN(C/C=C/c3ccccc3)CC2)cc1	9.43 µM	12.2 µM	9.1 µM	5.2 µM	–	–
COc1ccc(NC(=O)C2CCN(C/C=C/c3ccccc3)CC2)cc1	83.8 µM	88.8 µM	> 100 µM	58.2 µM	–	–
O=C(Nc1cccc(Cl)c1)C1CCN(C/C=C/c2ccccc2)CC1	19.1 µM	20 µM	16.1 µM	11.3 µM	–	–
NS(=O)(=O)OC[C@@H]1CC(n2ccc3c(N[C@H]4CCc5ccccc54)ncnc32)C[C@@H]1O (single isomer, unassigned) [PEVONEDISTAT]	47.8 µM	8.15 µM	> 100 µM	5.16 µM	13.5 µM	1.25 µM
